# Assay results taken from patent US9951065B2 (Gilead Sciences, Inc., priority 2015, dated 2018).
# Molecular target: T1, IDO1 (Homo sapiens, UniProt P14902)
# T1 construct: HeLa cells were treated with a test compound in the presence of IFNγ, which induces IDO1 expression; host or cells: H1-HeLa cells, IDO1 induced with IFNγ
# Experiment: Cell-based (HeLa) assay for measurement of IDO1 inhibition (kynurenine levels in supernatant after IFNγ induction)
# Conditions: HeLa cells, geometric mean of a minimum of four determinations
# Summary of the method: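 HeLa cells, 1,250 per well, treated with compound (0.5% DMSO final) plus IFNγ to induce IDO1, for 48 h. Supernatant kynurenine measured by TCA hydrolysis at 60 °C, then p-dimethylaminobenzaldehyde, absorbance 480 nm. EC50 from a four-parameter fit normalized to −/+IFNγ controls; geometric mean of at least four runs.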
# [1] = IFNγ-induced IDO1, kynurenine in supernatant after 48 hour incubation
# [2] = IFNγ-induced IDO1, kynurenine in supernatant, 48 hour incubation
# T1 sequence (P14902 whole entry): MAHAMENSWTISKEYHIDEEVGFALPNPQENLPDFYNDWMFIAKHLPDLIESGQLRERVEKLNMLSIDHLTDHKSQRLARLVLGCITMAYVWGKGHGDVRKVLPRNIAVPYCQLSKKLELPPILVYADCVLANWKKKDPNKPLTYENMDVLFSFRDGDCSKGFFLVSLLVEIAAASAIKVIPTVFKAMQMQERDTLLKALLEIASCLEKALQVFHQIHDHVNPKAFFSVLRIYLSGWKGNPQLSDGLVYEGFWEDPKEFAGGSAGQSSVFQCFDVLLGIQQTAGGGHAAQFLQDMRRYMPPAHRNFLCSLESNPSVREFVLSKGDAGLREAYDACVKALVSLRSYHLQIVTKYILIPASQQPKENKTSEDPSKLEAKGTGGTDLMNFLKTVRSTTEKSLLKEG
EC50 [1],EC50 [2],Structure (SMILES)
698 nM,,"COCCCNc1nc2nccc(/C(=N/O)Nc3ccc(F)c(Cl)c3)c2[nH]1 [Example 234, N-(3-chloro-4-fluorophenyl)-N′-hydroxy-2-((3-methoxypropyl)amino)-1H-imidazo[4,5-b]pyridine-7-carboximidamide]"
7600 nM,,"O/N=C(\Nc1ccc(F)c(Cl)c1)c1cc(Cl)cc2[nH]cnc12 [Example 11, 6-Chloro-N-(3-chloro-4-fluorophenyl)-N′-hydroxy-1H-benzo[d]imidazole-4-carboximidamide]"
,271 nM,"CN1CC[C@@H](Nc2nc3c(F)c(F)cc(/C(=N/O)Nc4ccc(F)c(Cl)c4)c3[nH]2)C1 [Example 457, (R)—N-(3-chloro-4-fluorophenyl)-4,5-difluoro-N′-hydroxy-2-((1-methylpyrrolidin-3-yl)amino)-1H-benzo[d]imidazole-7-carboximidamide]"
1320 nM,,"COCCCNCc1nc2c(/C(=N/O)Nc3ccc(F)c(Cl)c3)cc(F)c(F)c2[nH]1 [Example 45, N-(3-Chloro-4-fluorophenyl)-6,7-difluoro-N′-hydroxy-2-(((3-methoxypropyl)amino)methyl)-1H-benzo[d]imidazole-4-carboximidamide]"
2240 nM,,"O/N=C(\Nc1ccc(C(F)(F)F)cc1)c1ccnc2nc[nH]c12 [Example 91, N′-Hydroxy-N-(4-(trifluoromethyl)phenyl)-1H-imidazo[4,5-b]pyridine-7-carboximidamide]"
1080 nM,,"CCNc1nc2nccc(/C(=N/O)Nc3ccc(F)c(Cl)c3)c2[nH]1 [Example 163, N-(3-Chloro-4-fluorophenyl)-2-(ethylamino)-N′-hydroxy-1H-imidazo[4,5-b]pyridine-7-carboximidamide]"
1520 nM,,"O/N=C(\Nc1ccc(F)c(Cl)c1)c1ccnc2nc(NCCN3CCCCC3)[nH]c12 [Example 222, N-(3-chloro-4-fluorophenyl)-N′-hydroxy-2-((2-(piperidin-1-yl)ethyl)amino)-1H-imidazo[4,5-b]pyridine-7-carboximidamide]"
,1030 nM,"O/N=C(\Nc1ccc(F)c(Cl)c1)c1cc(F)c(F)c2nc(NC3COCCC3N3CCCC3)[nH]c12 (stereo not shown) [Example 473, N-(3-chloro-4-fluorophenyl)-4,5-difluoro-N′-hydroxy-2-((4-(pyrrolidin-1-yl)tetrahydro-2H-pyran-3-yl)amino)-1H-benzo[d]imidazole-7-carboximidamide]"
1630 nM,,"NC1(CCNc2nc3nccc(/C(=N/O)Nc4ccc(F)c(Cl)c4)c3[nH]2)CC1 [Example 242, 2-((2-(1-aminocyclopropyl)ethyl)amino)-N-(3-chloro-4-fluorophenyl)-N′-hydroxy-1H-imidazo[4,5-b]pyridine-7-carboximidamide]"
7490 nM,,"O/N=C(\Nc1ccc(F)c(Cl)c1)c1ccnc2nc(CNCCc3ncccn3)[nH]c12 [Example 137, N-(3-Chloro-4-fluorophenyl)-N′-hydroxy-2-(((2-(pyrimidin-2-yl)ethyl)amino)methyl)-1H-imidazo[4,5-b]pyridine-7-carboximidamide]"
,957 nM,"O/N=C(\Nc1ccc(F)c(Cl)c1)c1cc(F)c(F)c2nc(N[C@@H]3CCCN(C4COC4)C3)[nH]c12 [Example 465, (R)-N-(3-chloro-4-fluorophenyl)-4,5-difluoro-N′-hydroxy-2-((1-(oxetan-3-yl)piperidin-3-yl)amino)-1H-benzo[d]imidazole-7-carboximidamide]"
460 nM,,"COCCN(CCNc1nc2nccc(/C(=N/O)Nc3ccc(F)c(Cl)c3)c2[nH]1)C1CC1 [Example 232, N-(3-chloro-4-fluorophenyl)-2-((2-(cyclopropyl(2-methoxyethyl)amino)ethyl)amino)-N′-hydroxy-1H-imidazo[4,5-b]pyridine-7-carboximidamide]"
280 nM,,"O/N=C(\Nc1cc(F)cc(Br)c1)c1ccnc2nc[nH]c12 [Example 72, N-(3-Bromo-5-fluorophenyl)-N′-hydroxy-1H-imidazo[4,5-b]pyridine-7-carboximidamide]"
1060 nM,,"O/N=C(\Nc1ccc(F)c(Cl)c1)c1cc(F)c(F)c2[nH]c(CNCC3CC3)nc12 [Example 49, N-(3-Chloro-4-fluorophenyl)-2-(((cyclopropylmethyl)amino)methyl)-4,5-difluoro-N′-hydroxy-1H-benzo[d]imidazole-7-carboximidamide]"
457 nM,,"CCNCc1nc2c(/C(=N/O)Nc3ccc(F)c(Cl)c3)cc(F)c(F)c2[nH]1 [Example 50, N-(3-Chloro-4-fluorophenyl)-2-((ethylamino)methyl)-6,7-difluoro-N′-hydroxy-1H-benzo[d]imidazole-4-carboximidamide]"
4200 nM,,"O/N=C(\Nc1ccc(F)c(Cl)c1)c1ccnc2nc(C(O)C(F)(F)F)[nH]c12 (stereo not shown) [Example 176, N-(3-Chloro-4-fluorophenyl)-N′-hydroxy-2-(2,2,2-trifluoro-1-hydroxyethyl)-1H-imidazo[4,5-b]pyridine-7-carboximidamide]"

EC50 [1],EC50 [2],Structure (SMILES)
> 10000 nM,,"O/N=C(\Nc1ccc(F)c(Cl)c1)c1ccnc2nc(NC3COC3)[nH]c12 [Example 226, N-(3-chloro-4-fluorophenyl)-N′-hydroxy-2-(oxetan-3-ylamino)-1H-imidazo[4,5-b]pyridine-7-carboximidamide]"
9950 nM,,"NC(=O)CNc1nc2c(F)c(F)cc(/C(=N/O)Nc3ccc(F)c(Cl)c3)c2[nH]1 [Example 294, 2-((7-(N-(3-chloro-4-fluorophenyl)-N′-hydroxycarbamimidoyl)-4,5-difluoro-1H-benzo[d]imidazol-2-yl)amino)acetamide]"
,4000 nM,"O/N=C(\Nc1ccc(F)c(Cl)c1)c1ccc(F)c2nc(NCCN3CCOCC3)[nH]c12 [Example 368, N-(3-chloro-4-fluorophenyl)-4-fluoro-N′-hydroxy-2-((2-morpholinoethyl)amino)-1H-benzo[d]imidazole-7-carboximidamide]"
576 nM,,"O/N=C(\Nc1ccc(F)c(Cl)c1)c1ccnc2nc(CCN3CC4CCC(C4)C3)[nH]c12 [Example 277, 2-(2-(3-azabicyclo[3.2.1]octan-3-yl)ethyl)-N-(3-chloro-4-fluorophenyl)-N′-hydroxy-1H-imidazo[4,5-b]pyridine-7-carboximidamide]"
3210 nM,,"O/N=C(\Nc1ccc(F)c(Cl)c1)c1ccnc2nc(CCN3CC[C@@H](O)C3)[nH]c12 [Example 260, (R)—N-(3-chloro-4-fluorophenyl)-N′-hydroxy-2-(2-(3-hydroxypyrrolidin-1-yl)ethyl)-1H-imidazo[4,5-b]pyridine-7-carboximidamide]"
,3270 nM,"Nc1ccccc1CNc1nc2c(F)c(F)cc(/C(=N/O)Nc3ccc(F)c(Cl)c3)c2[nH]1 [Example 347, 2-((2-aminobenzyl)amino)-N-(3-chloro-4-fluorophenyl)-4,5-difluoro-N′-hydroxy-1H-benzo[d]imidazole-7-carboximidamide]"
1150 nM,,"O/N=C(\Nc1ccc(F)c(Cl)c1)c1cc(F)c(F)c2nc(NCCCNc3ccccn3)[nH]c12 [Example 297, N-(3-chloro-4-fluorophenyl)-4,5-difluoro-N′-hydroxy-2-((3-(pyridin-2-ylamino)propyl)amino)-1H-benzo[d]imidazole-7-carboximidamide]"
,3570 nM,"O/N=C(\Nc1ccc(F)c(Cl)c1)c1cc(F)c(F)c2nc(NCCn3cccn3)[nH]c12 [Example 300, 2-((2-(1H-pyrazol-1-yl)ethyl)amino)-N-(3-chloro-4-fluorophenyl)-4,5-difluoro-N′-hydroxy-1H-benzo[d]imidazole-7-carboximidamide]"
1090 nM,,"Nc1nc2c(F)c(F)cc(/C(=N/O)Nc3ccc(F)c(C(F)(F)F)c3)c2[nH]1 [Example 17, 2-Amino-4,5-difluoro-N-(4-fluoro-3-(trifluoromethyl)phenyl)-N′-hydroxy-1H-benzo[d]imidazole-7-carboximidamide]"
9280 nM,,"O/N=C(\Nc1ccc(F)c(Cl)c1)c1cc(F)c(F)c2nc(N3CCOCC3)[nH]c12 [Example 32, N-(3-Chloro-4-fluorophenyl)-4,5-difluoro-N′-hydroxy-2-morpholino-1H-benzo-[d]imidazole-7-carboximidamide]"
,185 nM,"CC(C)N(CCNc1nc2nccc(/C(=N/O)Nc3ccc(F)c(Cl)c3)c2[nH]1)C1CC1 [Example 406, N-(3-chloro-4-fluorophenyl)-2-((2-(cyclopropyl(isopropyl)amino)ethyl)amino)-N′-hydroxy-1H-imidazo[4,5-b]pyridine-7-carboximidamide]"
,4200 nM,"O/N=C(\Nc1ccc(F)c(Cl)c1)c1cc(F)c(F)c2nc(NCCN3CCC[C@H]3C(F)(F)F)[nH]c12 [Example 470, (S)-N-(3-chloro-4-fluorophenyl)-4,5-difluoro-N′-hydroxy-2-((2-(2-(trifluoromethyl)pyrrolidin-1-yl)ethyl)amino)-1H-benzo[d]imidazole-7-carboximidamide]"
,7620 nM,"CNC(C)Cc1nc2nccc(/C(=N/O)Nc3ccc(F)c(Cl)c3)c2[nH]1 (stereo not shown) [Example 327, N-(3-chloro-4-fluorophenyl)-N′-hydroxy-2-(2-(methylamino)propyl)-1H-imidazo[4,5-b]pyridine-7-carboximidamide]"
,261 nM,"CO[C@@H]1CN(C)C[C@H]1Nc1nc2c(F)c(F)cc(/C(=N/O)Nc3ccc(F)c(Cl)c3)c2[nH]1 [Example 458, N-(3-chloro-4-fluorophenyl)-4,5-difluoro-N′-hydroxy-2-(((3R,4R)-4-methoxy-1-methylpyrrolidin-3-yl)amino)-1H-benzo[d]imidazole-7-carboximidamide]"
,5660 nM,"NS(=O)(=O)CCNc1nc2nccc(/C(=N/O)Nc3ccc(F)c(Cl)c3)c2[nH]1 [Example 492, N-(3-chloro-4-fluorophenyl)-N′-hydroxy-2-((2-sulfamoylethyl)amino)-1H-imidazo[4,5-b]pyridine-7-carboximidamide]"
